Measured values as given in patent publication US7713969B2, “Compositions and methods for treatment of cancer” (ArQule, Inc., priority 2005, dated 2010).

Assays:
[1] = system: Recombinant Protein Kinase C; experiment: Protein Kinase C kinase reaction, Histone H1, autoradiography (Example 79); format: biochemical; details: 0.05, 0.5, or 10 μM, 15 minutes at room temperature
Procedure: Recombinant Protein Kinase C (Calbiochem) (100 ng) was incubated with (±)-cis-3-(5,6-dihydro-4H-pyrrolo[3,2,1-ij]quinolin-1yl)-4(1H-indol-3-yl)pyrrolidine-2,5-dione or (±)-trans-3-(5,6-dihydro-4H-pyrrolo[3,2,1-ij]quinolin-1-yl)-4(1H-indol-3-yl)pyrrolidine-2,5-dione at 0.05, 0.5, or 10 μM for 15 minutes at room temperature. Subsequently, a radioactive labeling mix in kinase buffer (20 mM Tris-HCl pH 7.5, 10 mM MgCl2) containing 20 μM ATP, 0.2 μCi/μl γ^32P-ATP, 0.2 μg/μl Histone H1 (Upstate) was added to each sample. The kinase reaction was carried out for 5 minutes at room temperature. Reaction products were analyzed by 12% SDS-PAGE and autoradiography.

MDA-MB-231 cells = experiment: Colony counting, surviving fraction (Example 78); format: cell-based, human; details: Homo sapiens, MDA-MB-231; two days incubation, colonies counted two weeks later; read-out: IC50 (surviving fraction equaled 50)
Procedure: MDA-MB-231 cells (ATCC# HTB-26), grown in DMEM plus 15% heat inactivated fetal bovine serum plus 10 mM HEPES pH 7.5, were plated in 60 mm plates (2×10^5 cells per plate). After two days candidate compounds in DMSO at various concentrations were diluted in media and added to individual plates such that the final DMSO concentration in the cell culture media was 0.1%. After two days incubation the culture was trypsinized, cells were washed with media, counted using a hemocytometer and 500 cells, including cell bodies, were plated in […] in media. Two weeks later the media was removed and the cell colonies were fixed with methanol for 10 minutes, stained with 1% crystal violet 10 minutes, washed with water and air dried. Cell colonies were visually counted when there were greater then 50 cells present per colony. Plating efficiency was defined as the average number of colonies formed divided by 500. The surviving fraction was defined as the plating efficiency of a candidate compound divided by the plating efficiency of DMSO multiplied by 100. For candidate compound titrations, the IC50 concentration was determined by fitting the equation y=AeBx to the data points and extrapolating the concentration where surviving fraction equaled 50. […]

ERK1/2 = ERK1/2 phosphorylation, Western blot (Example 80); format: cell-based, human; details: MDA-MB-231 cells, 100 ng/ml HGF/SF 10 minutes
Procedure: (§1) MDA-MB-231 cells were serum-deprived overnight (16 hours) in the absence or in the presence of the indicated concentrations of the separate enantiomers (+)-trans-3-(5,6-dihydro-4H-pyrrolo[3,2,1-ij]quinolin-1-yl)-4(1H-indol-3-yl)pyrrolidine-2,5-dione and (−)-trans-3-(5,6-dihydro-4H-pyrrolo[3,2,1-ij]quinolin-1-yl)-4(1H-indol-3-yl)pyrrolidine-2,5-dione. Cells were treated with 100 ng/ml recombinant human Hepatocyte Growth Factor/Scatter Factor (HGF/SF) (R&D Systems #294-HG) for 10 minutes. Whole cell extracts were prepared in lysis buffer (20 mM Trwas-HC1 pH 7.5, 150 mM NaCl, 1 mM Na2EDTA, 1 mM EGTA, 1% Triton X-100, 2.5 mM sodium pyrophosphate, 1 mM beta-glycerophosphate, 1 mM Na3VO4, 1 μg/ml leupeptin, 1 mM phenylmethylsulfonyl fluoride) and sonicated. Protein concentration was measured by Bradford assay using the BioRad reagent (BioRad, Hercules, Calif.), according to the manufacturer's directions. Samples (50 μg of protein) were resolved by 8% SDS-PAGE under reducing conditions, and transferred onto a PVDF membrane (BioRad). […] Proteins were detected by incubation overnight at 4° C. in TBS-T with 5% milk and either a polyclonal antibody against phosphorylated c-Met (#3121), phosphorylated Erk1/2 (#9101), total Erk1/2 protein (#9102) (Cell Signaling Technology); or a monoclonal antibody against […] (A-5441) (Sigma), which was used as a control for total protein loading. […]

[2] = system: HT29 human colon cancer xenograft; experiment: Colon cancer xenograft model (Example 87); format: in vivo, mice; details: for optimal tumor growth inhibition: daily 5 days on/2 off, 20 treatments
Procedure: In this human colon cancer xenograft model HT29 human colon cancer cells were inoculated subcutaneously into female athymic nude mice (5×10^6 cells/mouse) and allowed to form palpable tumors. Once the tumors reached approximately 60 mm^3, the animals were treated orally with either (−)-trans-3-(5,6-dihydro-4H-pyrrolo[3,2,1-ij]quinolin-1-yl)-4(1H-indol-3-yl)pyrrolidine-2,5-dione at 200 mg/kg or 300 mg/kg, or vehicle control daily (5 consecutive days, followed by a 2 day dosing holiday). (−)-trans-3-(5,6-dihydro-4H-pyrrolo[3,2,1-ij]quinolin-1-yl)-4(1H-indol-3-yl)pyrrolidine-2,5-dione was formulated in PEG 400:20% Vitamin E TPGS (60:40). The animals received a total of 20 treatments of either (−)-trans-3-(5,6-dihydro-4H-pyrrolo[3,2,1-ij]quinolin-1-yl)-4(1H-indol-3-yl) pyrrolidine-2,5-dione or vehicle control. Tumors were measured throughout treatment and the post-treatment observation period. Each point represents the mean±SEM of ten tumors. (See FIG. 11)

c-Met = c-Met (Homo sapiens, UniProt P08581); experiment: c-Met phosphorylation, Western blot (Example 80); format: cell-based; set-up: whole cell extracts were prepared; endogenous in cells; host or cells: MDA-MB-231; details: MDA-MB-231 cells, serum-deprived 16 hours, 100 ng/ml HGF/SF 10 minutes
Procedure: as §1

c-Met, sequence (P08581 25-1390): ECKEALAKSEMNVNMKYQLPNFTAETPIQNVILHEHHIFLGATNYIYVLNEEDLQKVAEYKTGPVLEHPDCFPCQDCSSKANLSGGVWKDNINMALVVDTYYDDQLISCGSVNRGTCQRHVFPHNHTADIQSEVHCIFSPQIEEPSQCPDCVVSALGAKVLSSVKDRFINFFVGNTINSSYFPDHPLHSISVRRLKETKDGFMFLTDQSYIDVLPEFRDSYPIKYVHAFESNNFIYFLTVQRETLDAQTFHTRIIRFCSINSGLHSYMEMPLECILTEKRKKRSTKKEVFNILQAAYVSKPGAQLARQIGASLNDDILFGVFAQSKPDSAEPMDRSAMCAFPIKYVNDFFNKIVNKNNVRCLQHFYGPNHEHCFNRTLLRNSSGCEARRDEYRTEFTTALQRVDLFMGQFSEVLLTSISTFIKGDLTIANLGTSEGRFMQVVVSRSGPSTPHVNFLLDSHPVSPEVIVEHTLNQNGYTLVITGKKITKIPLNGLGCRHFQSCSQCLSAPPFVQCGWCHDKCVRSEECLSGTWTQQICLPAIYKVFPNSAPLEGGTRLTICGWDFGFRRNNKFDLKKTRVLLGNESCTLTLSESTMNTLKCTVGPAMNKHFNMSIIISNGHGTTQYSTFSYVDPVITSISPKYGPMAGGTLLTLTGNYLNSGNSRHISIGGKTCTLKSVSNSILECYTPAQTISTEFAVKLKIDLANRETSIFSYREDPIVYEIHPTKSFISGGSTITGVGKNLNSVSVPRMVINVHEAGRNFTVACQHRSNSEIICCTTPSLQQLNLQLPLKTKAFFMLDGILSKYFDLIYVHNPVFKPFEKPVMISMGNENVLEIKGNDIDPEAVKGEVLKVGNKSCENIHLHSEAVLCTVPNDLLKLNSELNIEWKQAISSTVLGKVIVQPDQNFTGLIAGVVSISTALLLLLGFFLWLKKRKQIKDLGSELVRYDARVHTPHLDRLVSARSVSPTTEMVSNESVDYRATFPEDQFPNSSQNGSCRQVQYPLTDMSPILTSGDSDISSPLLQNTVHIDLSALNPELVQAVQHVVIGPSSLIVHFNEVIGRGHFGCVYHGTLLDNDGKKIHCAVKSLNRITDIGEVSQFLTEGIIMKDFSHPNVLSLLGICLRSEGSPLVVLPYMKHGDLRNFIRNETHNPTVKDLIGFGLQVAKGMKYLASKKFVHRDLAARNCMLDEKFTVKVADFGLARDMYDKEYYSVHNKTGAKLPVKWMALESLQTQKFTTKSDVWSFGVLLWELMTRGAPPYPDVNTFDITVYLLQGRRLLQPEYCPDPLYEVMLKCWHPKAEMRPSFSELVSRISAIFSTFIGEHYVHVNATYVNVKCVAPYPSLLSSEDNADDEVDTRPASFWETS

Protein Kinase C kinase activity in comparison to carrier alone [1] | concentration that inhibits basal and HGF-induced autophosphorylation of c-Met (c-Met) | SMILES | IC50 (MDA-MB-231 cells) | phosphorylation of ERK1/2 (ERK1/2) | change in body weight ([2]; 200 mg/kg or 300 mg/kg oral administration) | optimal tumor growth inhibition ([2]; 200 mg/kg orally) | optimal tumor growth inhibition ([2]; 300 mg/kg orally)
did not reduce kinase activity | – | O=C1NC(=O)[C@@H](c2cn3c4c(cccc24)CCC3)[C@@H]1c1c[nH]c2ccccc12 (racemic) [(±)-Trans-3-(5,6-dihydro-4H-pyrrolo[3,2,1-ij]quinolin-1-yl)-4(1H-indol-3-yl)pyrrolidine-2,5-dione] | – | – | – | – | –
– | at least 500 nM | O=C1NC(=O)C(c2cn3c4c(cccc24)CCC3)C1c1c[nH]c2ccccc12 (single isomer, unassigned; (-)) | 620 nM | decreases the phosphorylation of ERK1/2 | no significant change in body weight | 39% | 55%
